Several values for one entry are separate records, joined by “and”; a condition that tells them apart may be missing. Identical values can stand only once. Each block holds one molecule with its values, some of them ahead of it.
Legend:
[1] = Fluorescence emission spectra, 15 μM in 90% aqueous, 10% DMSO; type: physicochemical; conditions: for Red-shifted emission from 3-1 transposition versus known regiochemistry: longest wavelength-emitting species
Method: Compounds 21 and 7 also were characterized by their fluorescence emission spectra. Fluorescence was measured using 15 μM solutions of each compound in a solution that was 90% aqueous, 10% DMSO. For compound 21, the longest wavelength emission observed from the dianions occurred near 680 nm at pH 9. For compound 7 (transposed), the longest wavelength emission observed from the monoanion occurred near 800 nm at pH 9.
Compounds 22 and 8 also were characterized by their fluorescence emission spectra. Fluorescence was measured using 15 μM solutions of each compound in a solution that was 90% aqueous, 10% DMSO For compound 22, the longest wavelength emission observed from the anion occurred near 690 nm at pH 9. […] Given the greater than 800 nm absorbance peak and the typically large Stokes shifts observed in this class of compounds, it is likely that the emission was beyond the working range of the instrument (>850 nm).
Compounds 20 and 15a also were characterized by their fluorescence emission spectra. Fluorescence was measured using 15 μM solutions of each compound in a solution that was 90% aqueous, 10% DMSO. For compound 20a, the longest wavelength emission observed from its corresponding anion, compound 20c, occurred near 640 nm in NaOH (pH 12). For compound 15a (transposed), the longest wavelength emission observed from the corresponding anion, compound 15h, occurred near 760 nm in NaOH.
Compound 15b also was characterized by its fluorescence emission spectrum and compared to C.SNARF-5. Fluorescence was measured using a 15 μM solution of compound 15b in a solution that was 90% aqueous, 10% DMSO. For C.SNARF-5, the longest wavelength emission observed from the anion occurred near 632 nm (Whitaker et al., Anal. Biochem. 1991, 194, 330-344). For compound 15b (transposed), the longest wavelength emission observed from the phenoxide occurred near 770 nm.
Fluorescence was measured using a 15 μM solution of compound 15d in a solution that was 90% aqueous, 10% DMSO. […] For compound 15d (transposed), the longest wavelength emission observed from the phenoxide occurred near 780 nm (NaOH, pH 12).
Compounds 20b and 15g also were characterized by their fluorescence emission spectra. Fluorescence was measured using 15 μM solutions of each compound in a solution that was 90% aqueous, 10% DMSO. For compound 20b, the longest wavelength emission observed from the cation occurred near 640 nm at pH 7.4. For compound 15g (transposed), the longest wavelength emission observed from the cation occurred near 770 nm at pH 7.4.

[2] = UV-visible absorbance spectroscopy, 15 μM in 90% aqueous, 10% DMSO; type: physicochemical; conditions: for Red shift of absorption spectra from 3-1 transposition versus known regiochemistry: depending on the ionization state
Method: Compounds 21 and 7 were characterized by UV-visible spectroscopy (FIG. 15). Absorbance was measured using 15 μM solutions of each compound in a solution that was 90% aqueous, 10% DMSO. The peaks at 600 nm (light dashed line) and 675 nm (light solid line) represent the dianions of compounds 21 and 7, respectively, in NaOH (pH 12). The peaks at 590 nm (heavy dashed line) and 650 nm (heavy solid line) represent a mix of mono- and dianions of compound 21 at pH 7.4 and predominantly monoanions of compound 7 at pH 9, respectively.
Compounds 22 and 8 were characterized by UV-visible spectroscopy (FIG. 16). Absorbance was measured using 15 μM solutions of each compound in a solution that was 90% aqueous, 10% DMSO. The peaks at 610 nm (light dashed line) and 685 nm (light solid line) represent the anions of compounds 22 and 8, respectively, in NaOH (pH 12). The peaks at 605 nm (heavy dashed line) and 805 nm (heavy solid line) represent the neutral forms of compounds 22 and 8 at pH 7.4, respectively.
Compounds 20a and 15a were characterized by UV-visible spectroscopy (FIG. 17). Absorbance was measured using 15 μM solutions of each compound in a solution that was 90% aqueous, 10% DMSO. The peaks at 545 nm (light dashed line) and 595 nm (light solid line) represent the respective anions, compounds 20c and 15h, in NaOH (pH 12).
Compound 15b (free amino) was characterized by UV-visible spectroscopy (FIG. 18), and compared to C.SNARF-5 (literature, SNARF=seminaphthorhodafluor). Absorbance was measured using a 15 μM solution of compound 15b in a solution that was 90% aqueous, 10% DMSO. The peak at 535 nm (heavy line) represents the predominantly phenolic form of 15b at pH 6. The peak at 615 nm (light line) represents the phenoxide of compound 15b at in NaOH (pH12). In comparison, C.SNARF-5 produces a peak at 550 nm (anionic form) and a peak at 485 nm (neutral form) (Whitaker et al., Anal. Biochem. 1991, 194, 330-344).
Absorbance was measured using 15 μM solutions of compound 15d in a solution that was 90% aqueous, 10% DMSO. The peak at 570 nm (heavy line) represents the predominantly neutral form of 15d at pH 6. The peak at 630 nm (light line) represents the phenoxide of compound 15d in NaOH (pH 12).
Compounds 20b and 15g were characterized by UV-visible spectroscopy (FIG. 20). Absorbance was measured using 15 μM solutions of each compound in a solution that was 90% aqueous, 10% DMSO. The peaks at 540 nm (dashed line) and 570 nm (solid line) represent the cations of compounds 20b and 15g, respectively, at pH 7.4.

[3] = Emission in blood (whole porcine blood in buffer)
Method: Compound 15d (Table 1) was diluted to 40 μM in 50% DMSO:50% 25 mM pH 9 phosphate buffer. […] Emission remained stable for at least 1 hr. The absorption profile matches the output of a laser pointer (635-670 nm; max output <5 mW).
Its absorbance and fluorescence spectra faded over time, but remained visible after about an hour (although with only 10-20% of its original emission intensity). Molecular modeling has shown favorable structural interactions of compounds 5f and 24 with glutathione (FIG. 12—compound 24).
Spectral behavior of compound 15g (type [c] annulated seminaphtho-rhodamine methyl ester (free amine) with the 3-1 transposition) was investigated to determine its potential for sensing use in whole blood. Solutions of compound 15g in 10% or 90% by volume whole blood (porcine blood in Na-EDTA, Lampire Biological Laboratories) were investigated in a 3×3 mm cell. The fluorophore was first dissolved in 50 mM, pH 7.4 phosphate buffer to ensure complete dissolution, and in the case of 90% whole blood, this stock solution was mixed with whole blood in a 1:9 ratio. In the case of 10% whole blood, 1 part whole blood was added to 9 parts of an appropriately diluted (with deionized water) solution of compound 15g stock. In both cases, the final concentration of compound 15g was 150 μM with a final phosphate buffer concentration of 5 mM. […] Throughout much of the spectrum, the dye produces a greater absorbance than the blood alone. The change in absorbance between the two spectra provides the effective absorbance of the dye. […] The broad absorption and large Stokes shift of this dye allows significant excitation with greater than 50% efficiency at wavelengths beyond that of the major hemoglobin peaks in blood.

[4] = Absorbance and fluorescence in methanol; type: physicochemical
Method: Absorbance and fluorescence of compounds 22 and 8 also were measured in methanol. […] Thus, placement of the hydroxyl group proximal to the xanthene internal oxygen in compound 8 produced a bathochromic shift of 103 nm in the absorption spectrum. The transposition also imparted a corresponding shift in the excitation spectrum, and a large bathochromic shift of 128 nm in the fluorescence emission. Importantly, compound 8 absorbs and emits in the near-infrared with absorption and emission maxima of 701 nm and 816 nm, respectively.
Absorbance and fluorescence of compounds 20a and 15a also were measured in methanol. […] Thus, placement of the hydroxyl group proximal to the xanthene internal oxygen in compound 15a produced a bathochromic shift of 15 nm in the absorbance spectrum. The transposition also imparted a corresponding shift in the excitation spectrum, and a large bathochromic shift of 32 nm in the fluorescence emission.

[5] = Effect of pH / ionization on spectra; type: physicochemical
Text: There are through-space polar interactions between R^18 and the internal bridge oxygen in compounds according to general formulas III, IX, and X. The field effect is further enhanced in the case of symmetric compounds, such as those according to general formula IV when R^19 is oxygen. A unique intramolecular hydrogen-bonding network also is present in such compounds, e.g., compound 8 (FIG. 25). This network produces enhanced negative charge density on the ionizable oxygen atoms, thereby promoting a relatively large bathochromic shift. […] The hydrogen bonding can be seen in compounds such as compound 8 by ^1H NMR spectroscopy. A redistribution of the electronic density around the hydrogen atom occurs upon hydrogen bond formation between the hydroxyl proton, the carbonyl, and the central oxygen of compound 8. […] Evidence of hydrogen bonding was also seen in compound 15a, but to a lesser degree. In compound 15a, the total hydrogen bond distance O—H—O between the hydroxyl at the R^18 position and the xanthene central oxygen is 2.95 Å, which falls in range of common hydrogen bonds.
Known seminaphthorhodafluors display long wavelength absorption at high pH; however, the free amino compound in this series respond to low pH with increased long wavelength absorption.

[6] = NaOH (pH 12), anionic/phenoxide form, 90% aqueous 10% DMSO
[7] = pH 6, predominantly neutral/phenolic form
[8] = 40 μM in 50% DMSO:50% 25 mM pH 9 phosphate buffer

SMILES: Cc1ccc(C)c(-c2c3ccc4cccc(O)c4c3oc3c2ccc2cccc(=O)c23)c1 [Compound 4a]
Stability of absorption in the blood solution ([3]; blood solution): remained stable over extended periods of time

SMILES: COC(=O)c1ccccc1-c1c2ccc(=N)cc-2oc2c1ccc1cc(N)ccc12 [Compound 20b]
Stokes shift [1]: about 100 nm
Longest wavelength emission ([1]; pH 7.4, cation): ~640 nm
Absorbance peak ([2]; pH 7.4, 90% aqueous 10% DMSO): 540 nm

SMILES: COC(=O)c1ccccc1-c1c2ccc3cc(O)ccc3c2oc2c1ccc1cc(=O)ccc12 [Compound 22, naphthofluorescein methyl ester]
Absorption maximum [4]: 598 nm
Emission maximum [4]: 688 nm
Stokes shift [1]: about 80 nm
Longest wavelength emission ([1]; pH 9): ~690 nm
Absorbance peak [2, 6]: 610 nm
Absorbance peak ([2]; pH 7.4, 90% aqueous 10% DMSO): 605 nm

SMILES: O=C1OC2(c3ccccc31)c1ccc3cc(O)ccc3c1Oc1c2ccc2cc(O)ccc12 [Compound 21, Naphthofluorescein, reference compound]
Stokes shift [1]: about 80 nm
Longest wavelength emission ([1]; pH 9): ~680 nm
Absorbance peak [2, 6]: 600 nm
Absorbance peak ([2]; pH 7.4, 90% aqueous 10% DMSO): 590 nm

SMILES: Cc1ccc(C)c(-c2c3ccc4cccc(O)c4c3oc3c2ccc2cccc(=O)c23)c1 [Compound 10, 7-(2,5-dimethylphenyl)-13-hydroxy-1H-dibenzo[c,h]xanthen-1-one]
Shift of the absorption maximum on deprotonation [5]: hypsochromic

SMILES: COC(=O)c1ccccc1-c1c2ccc(=O)cc-2oc2c1ccc1cccc(N)c12 [Compound 15e]
Response of absorption to pH (pH titration) [5]: increased long wavelength absorption and decreased short wavelength absorption at low pH

Next, values leading:

Enhancement of the Stokes shift by 3-1 transposition [1]: about 73 nm
Stokes shift [1]: about 155 nm
Red-shifted emission from 3-1 transposition versus known regiochemistry [1]: about 138 nm
Longest wavelength emission ([1]; pH not stated): ~770 nm
Red shift of absorption spectra from 3-1 transposition versus known regiochemistry ([2]; 90% aqueous 10% DMSO): 50-65 nm
Absorbance peak [2, 6]: 615 nm
Absorbance peak [2, 7]: 535 nm
SMILES: COC(=O)c1ccccc1-c1c2ccc(=N)cc-2oc2c1ccc1cccc(O)c12 [Compound 15b]

Stokes shift [1]: about 95 nm
Longest wavelength emission ([1]; NaOH (pH 12), anion/phenoxide): ~640 nm
Absorbance peak [2, 6]: 545 nm
SMILES: COC(=O)c1ccccc1-c1c2ccc(=O)cc-2oc2c1ccc1cc(O)ccc12 [Compound 20c]

Enhancement of the Stokes shift by 3-1 transposition [1]: about 100 nm
Stokes shift [1]: about 200 nm
Red-shifted emission from 3-1 transposition versus known regiochemistry [1]: about 130 nm
Longest wavelength emission ([1]; pH 7.4, cation): ~770 nm
Emission spectrum maximum ([3]; 150 μM, 10% and 90% whole blood, excitation at 670 nm): about 750 nm
Red shift of absorption spectra from 3-1 transposition versus known regiochemistry ([2]; 90% aqueous 10% DMSO): about 30 nm
Absorbance peak ([2]; pH 7.4, 90% aqueous 10% DMSO): 570 nm
SMILES: COC(=O)c1ccccc1-c1c2ccc(=N)cc-2oc2c1ccc1cccc(N)c12 [Compound 15g]

Enhancement of the Stokes shift by 3-1 transposition [1]: about 92 nm
Stokes shift [1]: about 150 nm
Longest wavelength emission ([1]; NaOH (pH 12), anion/phenoxide): ~780 nm
Red-shifted emission from 3-1 transposition versus known regiochemistry [1]: about 149 nm
λmax em [3, 8]: ~790 nm
λmax ex [3, 8]: ~690 nm
Time emission remained stable ([3]; 5% whole blood): at least 1 hr
Loss of fluorescence on inclusion of whole blood ([3]; final blood concentration 5% by volume): only minimal loss of fluorescence
Red shift of absorption spectra from 3-1 transposition versus known regiochemistry ([2]; 90% aqueous 10% DMSO): 55-57 nm
Absorbance peak [2, 6]: 630 nm
Absorbance peak [2, 7]: 570 nm
SMILES: COC(=O)c1ccccc1-c1c2ccc(=[N+](C)C)cc-2oc2c1ccc1cccc(O)c12 [Compound 15d]

Absorption maximum [4]: 487 nm and 521 nm
Emission maximum [4]: 550 nm
Absorbance peak [2, 7]: 515 nm
SMILES: COC(=O)c1ccccc1-c1c2ccc(=O)cc-2oc2c1ccc1cc(O)ccc12 [Compound 20a]

Absorption maximum [4]: 501 nm and 536 nm
Bathochromic shift in the absorption spectrum versus known regiochemistry [4]: 15 nm
Bathochromic shift in the fluorescence emission versus known regiochemistry [4]: 32 nm
Emission maximum [4]: 582 nm
Red shift of absorption spectra from 3-1 transposition versus known regiochemistry ([2]; 90% aqueous 10% DMSO): 10-55 nm
Absorbance peak [2, 7]: 525 nm
SMILES: COC(=O)c1ccccc1-c1c2ccc(=O)cc-2oc2c1ccc1cccc(O)c12 [Compound 15a]

Source: patent US9958451B2, “Near-infrared fluorescent dyes with large stokes shifts” (Portland State University, priority 2011, dated 2018)
